Measurements from patent US8524214B2, “Polyal drug conjugates comprising variable rate-releasing linkers” (Mersana Therapeutics, Inc., priority 2009, dated 2013).
Read-outs that look alike come from different tables or passages of the source.

Columns and labels:
HT-29 cells = assay: Inhibitory effect on cell growth (MTT assay), HT-29 cells; type: cell-based
Protocol: Using HT-29 cells, the effect of the polyal-SN38 conjugates on cell growth was evaluated.
(§1) Cells are grown in McCoy's 5a medium with 1.5 mM L-glutamine supplemented with 10% FBS.

HCT116 = assay: Inhibitory effect on cell growth, HCT116 cells; type: cell-based, human
Protocol: as §1

[1] = pH 7.4
[2] = Homo sapiens, HT-29, HT29, growth inhibition 72 hours post treatment, MTT

CC[C@@]1(O)C(=O)OCc2c1cc1n(c2=O)Cc2cc3ccccc3nc2-1 [Camptothecin (CPT), Camptothecin]
IC50 (HT-29 cells; [2]): 83 nM | IC50 (HCT116; Homo sapiens, HCT-116): 23 nM

CCc1c2c(nc3ccc(OC(=O)N4CCC(N5CCCCC5)CC4)cc13)-c1cc3c(c(=O)n1C2)COC(=O)[C@]3(O)CC [Irinotecan]
IC50 (HT-29 cells; [2]): 4430 nM | IC50 (HCT116; Homo sapiens, HCT-116): 4650 nM

CCc1c2c(nc3ccc(O)cc13)-c1cc3c(c(=O)n1C2)COC(=O)[C@]3(O)CC [SN38]
IC50 (HT-29 cells; read-out: HT29 IC50): 25 nM | IC50 (HCT116): 9 nM

PHF-GA-Ala-SN38 [Conjugate S4]
Release half-lives of SN38 conjugates, T½ [1]: 54.2 h

PHF-GA-Gly-SN38 [Conjugate S2]
Release half-lives of SN38 conjugates, T½ [1]: 18.5 h

PHF-SA-Ala-SN38 [Conjugate S3]
Release half-lives of SN38 conjugates, T½ [1]: 36.9 h

PHF-SA-Gly-SN38 [Conjugate S1]
Release half-lives of SN38 conjugates, T½ [1]: 2.0 h
